Measured values published in patent publication US20240327334A1, “Covalent Inhibitors As Antiviral Agents” (Enanta Pharmaceuticals, Inc., priority 2022, published 2024).

Each molecule was assayed against SARS-CoV-2 Papain-like (PLpro) protease (Severe acute respiratory syndrome coronavirus 2, UniProt P0DTD1) (assay: SARS-CoV-2 Papain-like (PLpro) protease biochemical enzyme inhibition assay (ubiquitin-fluorophore substrate, Ub-R110)). Conditions: Ub-R110 substrate; run in duplicate; read-out: PLpro IC50.

SMILES | IC50
C[C@@H](NC(=O)c1ccccc1CNC(=O)C(=O)NCCC(=O)C(F)(F)F)c1cccc2ccccc12 [Example 9] | 1000 to 10000 nM
COc1cccc(Oc2cc(C(F)(F)F)cc(C3(NC(=O)c4ccccc4CNC(=O)C(=O)NCC#N)CC3)c2)c1 [Example 64] | > 10000 nM
O=C(NCC#Cc1nccs1)C(=O)NCc1ccccc1C(=O)NC1(c2cccc3cnccc23)CC1 [Example 391] | < 100 nM
C[C@@H](NC(=O)c1cc(F)cc(F)c1CNC(=O)C(=O)NCC#N)c1cccc2ccccc12 [Example 361] | > 10000 nM
N#Cc1ccc(C#CCNC(=O)C(=O)NCc2ccccc2C(=O)NC2(c3cccc4ccccc34)COC2)c(F)c1 [Example 108] | > 10000 nM
CC(C)[C@@H](C#Cc1ncccc1C(F)(F)F)NC(=O)C(=O)NCc1ccccc1C(=O)NC1(c2ccc3nn(C)cc3c2)CC1 [Example 205] | > 10000 nM
Cc1cnn(C)c1-c1cc(C(F)(F)F)cc(C2(NC(=O)c3ccccc3CNC(=O)C(=O)NCC#N)CC2)c1 [Example 474] | 100 to 1000 nM
C[C@@H](C#Cc1ccc(C#N)cc1OC(F)(F)F)NC(=O)C(=O)NCc1ccccc1C(=O)NC1(c2ccc3ccccc3c2)CC1 [Example 208] | > 10000 nM
N#CCNC(=O)C(=O)NCc1ccccc1C(=O)NC1(c2cc(F)cc(C(F)(F)F)c2)CC1 [Example 375] | 1000 to 10000 nM
N#CCNC(=O)C(=O)NCc1c(Cl)cccc1C(=O)NC1(c2cc(-c3cnn(C4CC4)c3)cc3ccccc23)CC1 [Example 291] | > 10000 nM
N#CN1CC[C@@H]1CNC(=O)C(=O)NCc1ccccc1C(=O)NC1(c2cccc3ccccc23)CC1 [Example 498] | 100 to 1000 nM
Cn1ccc2c(C3(NC(=O)c4ccccc4CNC(=O)C(=O)NCC#N)CC3)cccc21 [Example 533] | 100 to 1000 nM
N#CCCNC(=O)C(=O)NCCc1ccccc1C(=O)NC1(c2ccc3ccccc3c2)CC1 [Example 368] | > 10000 nM
CN1CCC(n2cc(-c3cc(F)cc(C4(NC(=O)c5ccccc5CNC(=O)C(=O)NCC#Cc5cnc(F)nc5)CC4)c3)cn2)CC1 [Example 256] | < 100 nM
C#C[C@H](C)NC(=O)C(=O)NCc1ccccc1C(=O)NC1(c2cc(F)cc(-c3cnn(C4CC4)c3)c2)CC1 [Example 141] | 100 to 1000 nM
N#CCNC(=O)C(=O)NCc1ccccc1C(=O)NC1(c2c[nH]c3ncccc23)CC1 [Example 408] | < 100 nM
N#C[C@H]1CCN1C(=O)C(=O)NCc1ccccc1C(=O)NC1(c2cccc3ccccc23)CC1 [Example 120] | > 10000 nM
COC(=O)/C=C/CNC(=O)C(=O)N(C)Cc1ccccc1C(=O)N[C@H](C)c1cccc2ccccc12 [Example 547] | > 10000 nM
C#CCNC(=O)C(=O)NCc1ccccc1C(=O)NC1(c2cc(Cl)c3nn(C4CC4)cc3c2)CC1 [Example 339] | < 100 nM
Cc1nn(C)cc1-c1cc(Cl)cc(C2(NC(=O)c3ccccc3CNC(=O)C(=O)NCC#N)CC2)c1 [Example 482] | < 100 nM
N#CCNC(=O)C(=O)NCc1ccccc1C(=O)NC1(c2cccc(-c3ccc(F)cc3)c2F)CC1 [Example 379] | < 100 nM
Cc1nnc(-c2cc(-c3nnc(C)o3)cc(C3(NC(=O)c4ccccc4CNC(=O)C(=O)NCC#N)CC3)c2)o1 [Example 478] | 100 to 1000 nM
CNC(=O)/C=C/CNC(=O)C(=O)NCc1ccccc1C(=O)N[C@H](C)c1cccc2ccccc12 [Example 16] | 1000 to 10000 nM
N#Cc1ccc(C#CCNC(=O)C(=O)NCc2ccccc2C(=O)NC2(c3ccc4ccccc4c3)CC2)s1 [Example 92] | 1000 to 10000 nM
C#CCNC(=O)C(=O)NCc1ccccc1C(=O)NC1(c2cc(-c3nnc(C)o3)cc(-c3nnc(C)o3)c2)CC1 [Example 479] | 100 to 1000 nM
N#CCNC(=O)C(=O)NCc1ccccc1C(=O)NC1(c2cccc(Br)c2F)CC1 [Example 373] | 100 to 1000 nM

SMILES | IC50
CCOc1cccnc1C#CC1(NC(=O)C(=O)NCc2ccccc2C(=O)NC2(c3ccc4ccccc4c3)CC2)CC1 [Example 203] | > 10000 nM
O=C(NCC#Cc1ccc(F)cc1F)C(=O)NCc1ccccc1C(=O)NC1(c2ccc3ccccc3c2)CC1 [Example 80] | > 10000 nM
C#C[C@@H](C)NC(=O)C(=O)NCc1ccccc1C(=O)NC1(c2cccc3ccccc23)CC1 [Example 157] | 1000 to 10000 nM
C#CC(=O)NNC(=O)C(=O)Nc1ccccc1C(=O)N[C@H](C)c1cccc2ccccc12 [Example 26] | 1000 to 10000 nM
CC#CC(=O)NNC(=O)C(=O)NCc1ccccc1C(=O)N[C@H](C)c1cccc2ccccc12 [Example 7] | > 10000 nM
O=C(NCC#Cc1cccnc1)C(=O)NCc1ccccc1C(=O)NC1(c2ccc3ccccc3c2)CC1 [Example 170] | 1000 to 10000 nM
COC(=O)/C=C/CCNC(=O)C(=O)NCC1C[C@@H]1C(=O)N[C@H](C)c1cccc2ccccc12 (stereo partly drawn) [Example 19] | > 10000 nM
N#CCNC(=O)C(=O)NCc1ccccc1C(=O)NC1(c2ccc3ccccc3c2)CC1 [Example 39] | 100 to 1000 nM
N#CCNC(=O)C(=O)NCc1ccccc1C(=O)NC1(c2ccc(-c3ccc(F)cc3)cc2)CC1 [Example 542] | > 10000 nM
N#CCNC(=O)C(=O)NCc1ccccc1C(=O)NC1(c2ccnc3ccccc23)CC1 [Example 407] | < 100 nM
N#C/C=C/CCNC(=O)C(=O)NCc1ccccc1C(=O)NC1(c2ccc3c4c(cccc24)CC3)CC1 [Example 437] | 100 to 1000 nM
N#CCNC(=O)C(=O)NCc1ccccc1C(=O)NC1(c2cc(C(F)(F)F)cc(C(F)(F)F)c2)CC1 [Example 45] | 1000 to 10000 nM
Cn1cc2ccc(C3(NC(=O)c4ccccc4CNC(=O)C(=O)NCC#N)CC3)cc2n1 [Example 340] | 100 to 1000 nM
N#CN1CC(NC(=O)C(=O)NCc2ccccc2C(=O)NC2(c3cccc4ccccc34)CC2)C1 [Example 436, N1-(1-cyanoazetidin-3-yl)-N2-(2-((1-(naphthalen-1-yl)cyclopropyl)carbamoyl)benzyl)oxalamide] | 100 to 1000 nM
C#CCNC(=O)C(=O)NCc1ccccc1C(=O)NC1(c2cccc3c2ccn3C)CC1 [Example 530] | 100 to 1000 nM
C[C@@H](C#Cc1ncccc1C(F)(F)F)NC(=O)C(=O)NCc1ccccc1C(=O)NC1(c2cc(F)cc(-c3cnn(C4CC4)c3)c2)CC1 [Example 142] | 100 to 1000 nM
N#Cc1cccc(C#CCNC(=O)C(=O)NCc2ccccc2C(=O)NC2(c3ccc4ccccc4c3)CC2)c1 [Example 93] | > 10000 nM
COC(=O)/C=C/CNC(=O)C(=O)NCC1C[C@H]1C(=O)N[C@H](C)c1cccc2ccccc12 (stereo partly drawn) [Example 18] | 1000 to 10000 nM
N#CCCCCNC(=O)C(=O)NCc1ccccc1C(=O)NC1(c2cc(Br)cc3ccccc23)CC1 [Example 421] | 1000 to 10000 nM
COC(=O)/C=C/CNC(=O)C(=O)NCc1c(F)cc(F)cc1C(=O)N[C@H](C)c1cccc2ccccc12 [Example 30] | 100 to 1000 nM
C[C@@H](NC(=O)c1ccccc1CNC(=O)C(=O)NCC#N)c1cc(-c2ccccc2)cc(C(F)(F)F)c1 [Example 34] | < 100 nM
O=C(NCc1ccccc1C(=O)NC1(c2ccc(F)c3ccccc23)CC1)C(=O)N[C@H]1CNC1=O [Example 122] | > 10000 nM
O=C(NC/C=C/c1ccccn1)C(=O)NCc1ccccc1C(=O)NC1(c2ccc3ccccc3c2)CC1 [Example 578] | 100 to 1000 nM
N#CCNC(=O)C(=O)NCc1ccc(C(=O)NC2CC2)cc1C(=O)NC1(c2ccc(F)c3ccccc23)CC1 [Example 116] | < 100 nM
O=C(NCC#Cc1nccs1)C(=O)NCc1ccccc1C(=O)NC1(c2ccc3ncccc3c2)CC1 [Example 389] | < 100 nM
